Data: PubChem BioAssay (NCI)
Values joined by “and” are separate entries in the source; they are usually repeats but may differ in a detail not shown here. Identical values can stand only once.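 96-well plates; 48 h exposure; 5 concentrations. Endpoints by linear interpolation between flanking doses. Not reached: highest tested concentration assigned. Abbreviation: GI50, concentration required for 50% inhibition of growth. Definition used: TGI = concentration required for complete inhibition of growth.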

Columns and labels:
Test in all cases: DTP human tumour cell line panel, 48 h
SK-MEL-28 melanoma = test system: SK-MEL-28 melanoma
COLO 205 colon = test system: COLO 205 colon
NCI/ADR-RES ovarian = test system: NCI/ADR-RES ovarian
PC-3 prostate = test system: PC-3 prostate
SNB-75 CNS = test system: SNB-75 CNS
M14 melanoma = test system: M14 melanoma
NCI-H226 lung = test system: NCI-H226 lung
HS 578T breast = test system: HS 578T breast
T-47D breast = test system: T-47D breast
HCC-2998 colon = test system: HCC-2998 colon

SMILES	GI50 (SK-MEL-28 melanoma)	TGI (SK-MEL-28 melanoma)	GI50 (COLO 205 colon)	TGI (COLO 205 colon)	GI50 (NCI/ADR-RES ovarian)	TGI (NCI/ADR-RES ovarian)	GI50 (PC-3 prostate)	TGI (PC-3 prostate)	GI50 (SNB-75 CNS)	TGI (SNB-75 CNS)	GI50 (M14 melanoma)	TGI (M14 melanoma)	GI50 (NCI-H226 lung)	TGI (NCI-H226 lung)	GI50 (HS 578T breast)	TGI (HS 578T breast)	GI50 (T-47D breast)	TGI (T-47D breast)	GI50 (HCC-2998 colon)	TGI (HCC-2998 colon)
C=C1C(=O)OC(CCCCCCCC)C1C(=O)O (stereo not given)	15 µM	29.1 µM	18.2 µM	33.7 µM	21.6 µM	59.7 µM	20.2 µM	40 µM	16 µM	34.6 µM	14.6 µM	29.7 µM	19.8 µM	48.1 µM	17.3 µM	> 86.6 µM	12.3 µM	30.6 µM	17.5 µM	31.4 µM
COc1c(O)c2ccccc2c2cc(O)ccc12	–	11.9 µM	–	31.5 µM	–	29.5 µM	–	60.1 µM	–	22.7 µM	–	8.57 µM	–	31.6 µM	–	> 58.9 µM	–	38.4 µM	–	32.7 µM
CN(NC(=O)/C(=C/c1ccc(O)cc1)NC(=O)c1ccccc1)c1ccnc2cc(Cl)ccc12	–	38.1 µM	–	36.2 µM	–	38 µM	–	32.7 µM	–	22.8 µM	–	36.6 µM	–	32.7 µM	–	48.2 µM	–	45.6 µM	–	33.3 µM
O=P(O)(O)OC1C(OP(=O)(O)O)C(OP(=O)(O)O)C(OP(=O)(O)O)C(OP(=O)(O)O)C1OP(=O)(O)O (stereo not given)	> 2000 µM	> 2000 µM	> 100 µM and > 500 µM and 1940 µM	> 2000 µM	> 2000 µM	> 2000 µM	> 2000 µM	> 2000 µM	> 1120 µM	> 2000 µM	> 2000 µM	> 2000 µM	> 1070 µM	> 1850 µM	> 2000 µM	> 2000 µM	> 2000 µM	> 2000 µM	> 2000 µM	> 2000 µM
CC1CN(CCO)CC(C)O1 (stereo not given)	–	> 100 µM	–	> 100 µM	–	> 100 µM	–	> 100 µM	–	> 100 µM	–	> 100 µM	–	> 100 µM	–	> 100 µM	–	> 100 µM	–	> 100 µM
Cc1ncc(C(=O)Nc2ccc(CN3CCN(C)CC3)c(C(F)(F)F)c2)cc1C#Cc1c(N)ncc2ccc(C#N)cc12	0.0676 µM	1.91 µM	0.059 µM	8.05 µM	5.06 µM	16.8 µM	4.49 µM	19.3 µM	2.38 µM	8.93 µM	0.029 µM	0.659 µM	0.451 µM	2.3 µM	0.572 µM	4.93 µM	> 14.5 µM	> 50 µM	4.96 µM	> 40.9 µM
CC[C@]1(O)C[C@@H]2CN(Cc3c([nH]c4ccccc34)[C@@](C(=O)OC)(c3cc4c(cc3OC)N(C)[C@H]3[C@@](O)(C(=O)OC)[C@H](OC(C)=O)[C@]5(CC)[C@@H]6C[C@@H]6CN6CC[C@]43[C@@H]65)C2)C1	0.0822 µM	> 4.38 µM	0.0298 µM	0.252 µM	> 4.38 µM	> 4.38 µM	0.0829 µM	> 4.38 µM	0.0393 µM	> 4.38 µM	0.135 µM	> 2.93 µM	> 1.44 µM	> 4.38 µM	0.0858 µM	> 1.33 µM	0.0562 µM	> 4.38 µM	0.116 µM	> 4.38 µM
C#Cc1cccc(NC(=O)Nc2ccccc2NC(=O)CCl)c1	23.7 µM	> 82.5 µM	29 µM	> 82.5 µM	23.4 µM	75.5 µM	21.5 µM	58 µM	9.11 µM	19.8 µM	27.8 µM	> 82.5 µM	16 µM	34.1 µM	17.1 µM	56.1 µM	31.1 µM	> 82.5 µM	15.3 µM	29.8 µM
CCOC(=O)c1cc2c(n1Cc1cccc(OC)c1)-c1oncc1CC2	0.97 µM	> 100 µM	0.508 µM	3.99 µM	0.302 µM	5.14 µM	5.19 µM	> 100 µM	0.399 µM	3.03 µM	0.432 µM	35.3 µM	7.46 µM	> 100 µM	0.742 µM	8.16 µM	0.61 µM	97.2 µM	1.94 µM	29.6 µM
CCN(CC)CCn1c(=N)n(CC(O)c2ccc(Cl)c(Cl)c2)c2ccccc21 (stereo not given)	2.05 µM	4.34 µM	2.05 µM	3.96 µM	17.7 µM	36.8 µM	5.21 µM	19.3 µM	10.6 µM	23.8 µM	2.07 µM	3.74 µM	17 µM	36.9 µM	4.25 µM	21.2 µM	4.68 µM	19.3 µM	2.34 µM	5.3 µM
COc1ccc(CCNc2nc3ccccc3c3[nH]c4ccccc4c23)cc1OC	1.71 µM	3.21 µM	1.57 µM	3.46 µM	4.73 µM	26 µM	3.66 µM	14 µM	14.3 µM	28.4 µM	1.87 µM	3.5 µM	7.82 µM	25 µM	2.54 µM	6.17 µM	15.3 µM	34.2 µM	1.6 µM	3.1 µM
